Measured values as given in ChEMBL document CHEMBL1201862, “PubChem BioAssay data set” (2004).
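Method: 48-hour compound exposure of cells in 96-well plates, five concentrations, linear interpolation of endpoints. Here, GI50 denotes the concentration required for 50% inhibition of growth.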 Active and inactive are the calls of the source. Rule as the data show it: active = GI50 up to about 1.1 µM and inactive = higher.

Assays:
Assay in all cases: NCI tumour cell line growth inhibition, 48 h
[1] = tested on: M19-MEL
[2] = tested on: SN12C
[3] = tested on: COLO 205
[4] = tested on: RPMI-8226
[5] = tested on: UACC-257
[6] = tested on: CCRF-CEM
[7] = tested on: NCI-H23
[8] = tested on: SK-MEL-28
[9] = tested on: NCI-H460
[10] = tested on: ACHN
[11] = tested on: SK-OV-3
[12] = tested on: SW-620
[13] = tested on: HOP-92
[14] = tested on: HOP-62
[15] = tested on: TK-10
[16] = tested on: LXFL 529
[17] = tested on: U-251
[18] = tested on: MOLT-4
[19] = tested on: SNB-75
[20] = tested on: UO-31
[21] = tested on: NCI-H226
[22] = tested on: SF-539
[23] = tested on: 786-0
[24] = tested on: CAKI-1
[25] = tested on: KM-20L2
[26] = tested on: OVCAR-5
[27] = tested on: SF-295
[28] = tested on: SNB-78
[29] = tested on: LOX IMVI
[30] = tested on: HCT-116
[31] = tested on: DMS-273
[32] = tested on: A549
[33] = tested on: OVCAR-3
[34] = tested on: SK-MEL-5
[35] = tested on: HCT-15
[36] = tested on: HCC 2998
[37] = tested on: NCI-H522
[38] = tested on: DLD-1
[39] = tested on: Malme-3M
[40] = tested on: RXF 393
[41] = tested on: HL-60
[42] = tested on: HT-29
[43] = tested on: DMS-114
[44] = tested on: KM12
[45] = tested on: SNB-19
[46] = tested on: K562
[47] = tested on: SF-268
[48] = tested on: A498
[49] = tested on: SK-MEL-2
[50] = tested on: OVCAR-4
[51] = tested on: M14
[52] = tested on: EKVX
[53] = tested on: UACC-62
[54] = tested on: OVCAR-8
[55] = tested on: IGROV-1

Measured: GI50

O=C(/C=C/c1ccc(Cl)cc1)c1ccc(Cl)c(Cl)c1
inactive: [1] 27.8 µM | [2] 9.1 µM | [3] > 10 µM | [4] 2.95 µM | [5] 29.6 µM | [6] 16.2 µM | [7] 9.4 µM | [8] 17.3 µM | [9] 34.6 µM | [10] 29 µM | [11] 26.4 µM | [12] 5.41 µM | [13] > 10 µM | [14] 22 µM | [15] > 10 µM | [16] 18.9 µM | [17] 11.2 µM | [18] 20.5 µM | [19] 19.6 µM | [20] 28.5 µM | [21] 14 µM | [22] 20 µM | [23] 25.5 µM | [24] 18.1 µM | [25] 41.2 µM | [26] > 10 µM | [27] 35.2 µM | [28] > 10 µM | [29] 15.2 µM | [30] 4.99 µM | [31] 40.9 µM | [32] 23.7 µM | [33] 21.7 µM | [34] 18.1 µM | [36] 30.3 µM | [37] 18.8 µM | [38] 15 µM | [39] 25.1 µM | [40] 15.5 µM | [41] 3.44 µM | [42] 48 µM | [43] 23.6 µM | [44] 9.31 µM | [45] 23.7 µM | [46] 21.7 µM | [47] 20.7 µM | [48] 34.4 µM | [49] 23.4 µM | [50] 26.4 µM | [51] 28 µM | [52] 26.4 µM | [53] 23.7 µM | [54] 20.6 µM | [55] 22.3 µM
26 µM: [35]
